# Laboratory results reported in patent US9242981B2, “Fused pyrazole derivatives as novel ERK inhibitors” (Merck Sharp & Dohme Corp., priority 2010, dated 2016).
# How the values were obtained:
# ERK protein = ERK protein (Mus musculus, UniProt P63085); experiment: TdF (Temperature Dependence Fluorescence, thermal shift) assay for ERK; type: binding; details: Table 2; 3 μM ERK protein
# Excerpt: The SAR (Structure Activity Relationship) for ERK ligands covered by this invention was interrogated using the TdF (Temperature Dependence Fluorescence) assay or best known as thermal shift assay. (M. W. Pantoliano, et al., “High-density miniaturized thermal shift assays as a general strategy for drug discovery,” J. Biomol. Screen 6 (2001) 429-440) The TdF assay was mainly conducted in the 96-well based CHROMO-4 real time fluorescence plate reader (BioRad). The Sypro Orange (Sigma-Aldrich), environmentally sensitive fluorescence dye, was used to monitor the protein folding-unfolding transition. Protein-ligand binding was gauged by the change (or shift) in the unfolding transition temperature (ΔTm) acquired at protein alone with respect to protein in the presence of ligand of interest.
# Compound of interest was first prepared in DMSO stock (typical concentration: 10 mM). […] Final percentage of DMSO resided in the sample was 2%. The sample plate was heated from 30° C. to 90° C. with thermal ramping rate of 1° C./min. The fluorescence signals were acquired with excitation and emission wavelengths centered at 490 and 560 nm respectively. The instrument thermal stability was ±0.2° C. The melting temperatures (Tm) for ERK protein under aforementioned conditions occurred at […] and 64.8±0.2° C. respectively.
# The derivation of TdF-based ligand binding affinity constant (Kd) followed closely those previously formulated by Brandts and Lin. (J. F. Brandts, L.-N. Lin, “Study of strong to ultratight protein interactions using differential scanning calorimetry,” Biochemistry 29 (1990) 6927-6940). In brief, the binding constant of the ligand at the Tm is expressed as below:
# [formula] where T0 is the midpoint of unfolding for unliganded protein and Tm is the midpoint of unfolding in presence of ligand. [LTm] is free ligand at Tm. The ΔHu and ΔCpu are the enthalpy of unfolding and heat capacity change of unfolding for the protein respectively. Following algorithm derived by Winsor and coworker, the T0, ΔHu and ΔCpu can be determined separately from nonlinear regression fitting the protein alone melting curve:
# [formula] where F(T) is the observed fluorescence intensity at any temperature T, Yn, and Yu are the predicted fluorescence intensities for fully folded and unfolded protein, respectively; mn and mu are slope correction for changes in Yn and Yu with respect to changes in temperature (analogously replace T0 with Tm in the above equation for liganded protein to yield Tm). (Mayhood, T. W., Windsor, W. T., “Ligand binding affinity determined by temperature-dependent circular dichroism: Cyclin-dependent kinase 2 inhibitors,” Analytical Biochemistry 345 (2005) 187-197).
# [formula] where ΔHL (T) is the van't Hoff enthalpy of ligand binding at temperature T and ΔCpL is the heat capacity upon ligand binding. For simplicity, the ΔCpL and ΔHL (T) were set to zero and -7 kcal/mol respectively. […]
# Mouse ERK2 protein = Mouse ERK2 protein (Mus musculus (Mouse), UniProt P63085); experiment: Coupled MEK1/ERK2 IMAP assay or Active ERK2 IMAP assay; type: biochemical
# Mouse ERK2 protein, sequence (P63085 whole entry): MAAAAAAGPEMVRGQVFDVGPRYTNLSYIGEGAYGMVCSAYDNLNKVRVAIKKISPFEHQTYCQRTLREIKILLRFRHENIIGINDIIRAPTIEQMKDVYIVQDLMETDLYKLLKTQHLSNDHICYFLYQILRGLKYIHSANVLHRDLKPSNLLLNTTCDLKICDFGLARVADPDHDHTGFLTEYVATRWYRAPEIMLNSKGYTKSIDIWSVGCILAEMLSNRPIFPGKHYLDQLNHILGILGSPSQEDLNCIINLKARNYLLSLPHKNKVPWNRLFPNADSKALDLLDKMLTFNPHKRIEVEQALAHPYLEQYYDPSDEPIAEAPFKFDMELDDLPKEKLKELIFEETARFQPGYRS
# [1] = Table 1, class symbols, 30 μM ATP
# ERK protein, sequence (P63085 2-358 limits assumed): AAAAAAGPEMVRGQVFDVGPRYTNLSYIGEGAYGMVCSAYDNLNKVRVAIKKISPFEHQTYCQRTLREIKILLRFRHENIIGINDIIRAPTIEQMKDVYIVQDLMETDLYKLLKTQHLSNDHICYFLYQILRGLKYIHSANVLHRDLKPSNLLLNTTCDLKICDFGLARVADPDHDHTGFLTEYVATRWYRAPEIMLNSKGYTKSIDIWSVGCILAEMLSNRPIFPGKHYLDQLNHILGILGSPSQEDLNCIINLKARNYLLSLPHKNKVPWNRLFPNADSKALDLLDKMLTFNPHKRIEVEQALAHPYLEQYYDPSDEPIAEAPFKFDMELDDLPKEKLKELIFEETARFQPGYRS
structure (smiles),measurement,setting,value
"Cc1ccc(CN2CCC[C@@H](NC(=O)N3CCc4[nH]nc(-c5ccncc5)c4C3)C2)s1 [Compound 59, 1,4,6,7-tetrahydro-N-[1-[(5-methyl-2-thienyl)methyl]-3(R)-piperidinyl]-3-(4-pyridinyl)-5H-pyrazolo[4,3-c]pyridine-5-carboxamide]",Kd,ERK protein,1.51 nM
same,IC50,"Mouse ERK2 protein; Table 2, 30 μM ATP",1.78 nM
"COc1cccc(F)c1CN1CCC[C@@H](NC(=O)N2CCc3[nH]nc(-c4ccc5nccn5c4)c3C2)C1 [Compound 113, N-[1-[(2-fluoro-6-methoxyphenyl)methyl]-3(R)-piperidinyl]-1,4,6,7-tetrahydro-3-(imidazo[1,2-a]pyridin-6-yl)-5H-pyrazolo[4,3-c]pyridine-5-carboxamide]",Kd,ERK protein,0.03 nM
same,IC50,"Mouse ERK2 protein; Table 2, 30 μM ATP",4.2 nM
Cc1cccc(C)c1CN1CCC[C@@H](NC(=O)N2CCc3[nH]nc(-c4ccc5nccn5c4)c3C2)C1 [Compound 110],Kd,ERK protein,0.03 nM
same,IC50,"Mouse ERK2 protein; Table 2, 30 μM ATP",5.3 nM
"Cc1ccsc1CN1CCC[C@@H](NC(=O)N2CCc3[nH]nc(-c4ccncc4)c3C2)C1 [Compound 58, 1,4,6,7-tetrahydro-N-[1-[(3-methyl-2-thienyl)methyl]-3(R)-piperidinyl]-3-(4-pyridinyl)-5H-pyrazolo[4,3-c]pyridine-5-carboxamide]",Kd,ERK protein,0.25 nM
same,IC50,"Mouse ERK2 protein; Table 2, 30 μM ATP",1.98 nM
"Cn1c(CN2CCC[C@@H](NC(=O)N3CCc4[nH]nc(-c5ccncc5)c4C3)C2)cc2ccccc21 [Compound 61, 1,4,6,7-tetrahydro-N-[1-[(1-methyl-1H-indol-2-yl)methyl]-3(R)-piperidinyl]-3-(4-pyridinyl)-5H-pyrazolo[4,3-c]pyridine-5-carboxamide]",Kd,ERK protein,0.47 nM
same,IC50,"Mouse ERK2 protein; Table 2, 30 μM ATP",0.3 nM
"Cc1cc(-c2n[nH]c3c2CN(C(=O)NC2CCCN(Cc4c(C)cccc4C)C2)CC3)ccn1 (centres unmarked) [Compound 84, N-[1-[(2,6-dimethylphenyl)-methyl]-3-piperidinyl]-1,4,6,7-tetrahydro-3-(2-methyl-4-pyridinyl)-5H-pyrazolo[4,3-c]pyridine-5-carboxamide]",Kd,ERK protein,0.13 nM
same,IC50,"Mouse ERK2 protein; Table 2, 30 μM ATP",6.3 nM
"Cc1cc(-c2n[nH]c3c2CN(C(=O)N[C@@H]2CCCN(Cc4cccc5ccccc45)C2)CC3)ccn1 [Compound 100, 1,4,6,7-tetrahydro-3-(2-methyl-4-pyridinyl)-N-[1-(1-naphthalenylmethyl)-3(R)-piperidinyl]-5H-pyrazolo[4,3-c]pyridine-5-carboxamide]",Kd,ERK protein,0.4 nM
same,IC50,"Mouse ERK2 protein; Table 2, 30 μM ATP",3.7 nM
"CC(=O)n1cc(CN2CCC[C@@H](NC(=O)N3CCc4[nH]nc(-c5ccncc5)c4C3)C2)c2ccccc21 [Compound 62, N-[1-[(1-acetyl-1H-indol-3-yl)methyl]-3(R)-piperidinyl]-1,4,6,7-tetrahydro-3-(4-pyridinyl)-5H-pyrazolo[4,3-c]pyridine-5-carboxamide]",Kd,ERK protein,2.1 nM
same,IC50,"Mouse ERK2 protein; Table 2, 30 μM ATP",2.01 nM
"O=C(N[C@@H]1CCCN(Cc2ccccc2Cl)C1)N1CCc2[nH]nc(-c3ccncc3)c2C1 [Compound 69, N-[1-[(2-chlorophenyl)-methyl]-3(R)-piperidinyl]-1,4,6,7-tetrahydro-3-(4-pyridinyl)-5H-pyrazolo[4,3-c]pyridine-5-carboxamide]",Kd,ERK protein,0.31 nM
same,IC50,"Mouse ERK2 protein; Table 2, 30 μM ATP",2.4 nM
"O=C(N[C@@H]1CCCN(Cc2c(F)cccc2F)C1)N1CCc2[nH]nc(-c3ccncc3)c2C1 [Compound 54, N-[1-[(2,6-difluorophenyl)methyl]-3(R)-piperidinyl]-1,4,6,7-tetrahydro-3-(4-pyridinyl)-5H-pyrazolo[4,3-c]pyridine-5-carboxamide]",Kd,ERK protein,0.51 nM
same,IC50,"Mouse ERK2 protein; Table 2, 30 μM ATP",1.97 nM
"COc1cccc(F)c1CN1CCC[C@@H](NC(=O)N2CCc3[nH]nc(-c4ccncc4)c3C2)C1 [Compound 53, N-[1-[(2-fluoro-6-methoxyphenyl)methyl]-3(R)-piperidinyl]-1,4,6,7-tetrahydro-3-(4-pyridinyl)-5H-pyrazolo[4,3-c]pyridine-5-carboxamide]",Kd,ERK protein,0.15 nM
same,IC50,Mouse ERK2 protein; [1],< 20 nM
same,IC50,"Mouse ERK2 protein; Table 2, 30 μM ATP",3.8 nM
"Cn1cc(CN2CCC[C@@H](NC(=O)N3CCc4[nH]nc(-c5ccncc5)c4C3)C2)c2ccccc21 [Compound 60, 1,4,6,7-tetrahydro-N-[1-[(1-methyl-1H-indol-3-yl)methyl]-3(R)-piperidinyl]-3-(4-pyridinyl)-5H-pyrazolo[4,3-c]pyndine-5-carboxamide]",Kd,ERK protein,1.12 nM
same,IC50,"Mouse ERK2 protein; Table 2, 30 μM ATP",1.24 nM
"O=C(N[C@@H]1CCCN(Cc2csc3ccccc23)C1)N1CCc2[nH]nc(-c3ccncc3)c2C1 [Compound 57, N-[1-(benzo[b]thien-3-ylmethyl)-3(R)-piperidinyl]-1,4,6,7-tetrahydro-3-(4-pyridinyl)-5H-pyrazolo[4,3-c]pyridine-5-carboxamide]",Kd,ERK protein,0.3 nM
same,IC50,"Mouse ERK2 protein; Table 2, 30 μM ATP",0.5 nM
"Cc1ccccc1[C@@H]1CN(C)C[C@H]1NC(=O)N1CCc2[nH]nc(-c3ccncc3)c2C1 [Compound 46, 1,4,6,7-tetrahydro-N-[1-methyl-4(R)-(2-methylphenyl)-3(S)-pyrrolidinyl]-3-(4-pyridinyl)-5H-pyrazolo[4,3-c]pyridine-5-carboxamide]",Kd,ERK protein,0.7 nM
same,IC50,"Mouse ERK2 protein; Table 2, 30 μM ATP",0.89 nM
"Cc1noc(-c2ccccc2)c1CN1CCC[C@@H](NC(=O)N2CCc3[nH]nc(-c4ccncc4)c3C2)C1 [Compound 75, 1,4,6,7-tetrahydro-N-[1-[(3-methyl-5-phenyl-4-isoxazolyl)methyl]-3(R)-piperidinyl]-3-(4-pyridinyl)-5H-pyrazolo[4,3-c]pyridine-5-carboxamide]",Kd,ERK protein,1.36 nM
"Cc1cccc(C)c1CN1CCC[C@@H](NC(=O)N2CCc3[nH]nc(-c4ccncc4)c3C2)C1 [Compound 71, N-[1-[(2,6-dimethylphenyl)-methyl]-3(R)-piperidinyl]-1,4,6,7-tetrahydro-3-(4-pyridinyl)-5H-pyrazolo[4,3-c]pyridine-5-carboxamide]",Kd,ERK protein,0.15 nM
same,IC50,"Mouse ERK2 protein; Table 2, 30 μM ATP",2.07 nM
"COc1cccc(F)c1CN1CC(NC(=O)N2CCc3[nH]nc(-c4ccnc(C)c4)c3C2)CC(C(F)(F)F)C1 (centres unmarked) [Compound 123, N-[1-[(2-fluoro-6-methoxyphenyl)methyl]-5-(trifluoromethyl)-3-piperidinyl]-1,4,6,7-tetrahydro-3-(2-methyl-4-pyridinyl)-5H-pyrazolo[4,3-c]pyridine-5-carboxamide]",Kd,ERK protein,0.06 nM
same,IC50,"Mouse ERK2 protein; Table 2, 30 μM ATP",4.3 nM
"Cc1onc(-c2ccccc2)c1CN1CCC[C@@H](NC(=O)N2CCc3[nH]nc(-c4ccncc4)c3C2)C1 [Compound 76, 1,4,6,7-tetrahydro-N-[1-[(5-methyl-3-phenyl-4-isoxazolyl)methyl]-3(R)-piperidinyl]-3-(4-pyridinyl)-5H-pyrazolo[4,3-c]pyridine-5-carboxamide]",Kd,ERK protein,1.55 nM
"O=C(N[C@@H]1CCCN(Cc2csc3ccccc23)C1)N1CCc2[nH]nc(-c3ccc4nccn4c3)c2C1 [Compound 109, N-[1-(benzo[b]thien-3-ylmethyl)-3(R)-piperidinyl]-1,4,6,7-tetrahydro-3-(imidazo[1,2-a]pyridin-6-yl)-5H-pyrazolo[4,3-c]pyridine-5-carboxamide]",Kd,ERK protein,0.14 nM
same,IC50,"Mouse ERK2 protein; Table 2, 30 μM ATP",3 nM
"CN1C[C@@H](NC(=O)N2CCc3[nH]nc(-c4ccncc4)c3C2)[C@H](c2cccc(-c3ccccc3)c2)C1 (racemic) [Compound 169, N-[trans-4-[1,1′-biphenyl]-3-yl-1-methyl-3-pyrrolidinyl]-1,4,6,7-tetrahydro-3-(4-pyridinyl)-5H-pyrazolo[4,3-c]pyridine-5-carboxamide]",IC50,Mouse ERK2 protein; [1],< 20 nM
"COc1ccccc1CN1CCC[C@@H](NC(=O)N2CCc3[nH]nc(-c4ccncc4)c3C2)C1 [Compound 70, 1,4,6,7-tetrahydro-N-[1-[(2-methoxyphenyl)methyl]-3(R)-piperidinyl]-3-(4-pyridinyl)-5H-pyrazolo[4,3-c]pyridine-5-carboxamide]",IC50,Mouse ERK2 protein; [1],21 to 100 nM
"O=C(N[C@@H]1CCCN(Cc2ccsc2)C1)N1CCc2[nH]nc(-c3ccncc3)c2C1 [Compound 56, 1,4,6,7-tetrahydro-3-(4-pyridinyl)-N-[1-(3-thienylmethyl)-3(R)-piperidinyl]-5H-pyrazolo[4,3-c]pyridine-5-carboxamide]",IC50,Mouse ERK2 protein; [1],< 20 nM
"CC1(C(=O)Nc2ccccc2OC(F)(F)F)CCc2[nH]nc(-c3ccncc3)c2C1 (centres unmarked) [Compound 17, 4,5,6,7-tetrahydro-5-methyl-3-(4-pyridinyl)-N-[2-(trifluoromethoxy)phenyl]-1H-indazole-5-carboxamide]",IC50,Mouse ERK2 protein; [1],1000 to 100000 nM
